Reference: PubChem BioAssay (NCI)
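Grown in 96-well plates, cells were treated for 48 hours with each compound at five concentrations. Insufficient inhibition: endpoint recorded as highest concentration tested. At the TGI there is no net growth.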

Tests used:
Assay in all cases: NCI tumour cell line growth inhibition, 48 h
M19-MEL melanoma = system: M19-MEL melanoma
RXF-631 renal = system: RXF-631 renal
XF 498 CNS = system: XF 498 CNS
P388 leukemia = system: P388 leukemia
P388/ADR leukemia = system: P388/ADR leukemia
SN12K1 renal = system: SN12K1 renal

Structure (SMILES)	TGI (M19-MEL melanoma) [µM]	TGI (RXF-631 renal) [µM]	TGI (XF 498 CNS) [µM]	TGI (P388 leukemia) [µM]	TGI (P388/ADR leukemia) [µM]	TGI (SN12K1 renal) [µM]
COc1cc(C(=O)CC2OC(=O)C(Cl)=C2Cl)ccc1Cl (stereo not drawn)	> 100	> 100	> 100			
Cc1ccc(C2COc3cc(O)c(O)cc3C2)cc1 (stereo not drawn)	66.1			750	750	75
OCc1cc2ccncc2c2c1[nH]c1ccccc12			19.7			
